Test results reported in PubChem BioAssay (NCI).
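Interpolation was linear, between the two tested concentrations surrounding the appropriate level; five concentrations were tested over 48 hours in 96-well plates. TGI marks complete inhibition of growth.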

Key:
Assay in all cases: NCI tumour cell line growth inhibition, 48 h
SK-OV-3 ovarian = tested on: SK-OV-3 ovarian
U251 CNS = tested on: U251 CNS
HT29 colon = tested on: HT29 colon
SR leukemia = tested on: SR leukemia
NCI-H460 lung = tested on: NCI-H460 lung
786-0 renal = tested on: 786-0 renal
OVCAR-4 ovarian = tested on: OVCAR-4 ovarian
CCRF-CEM leukemia = tested on: CCRF-CEM leukemia
LOX IMVI melanoma = tested on: LOX IMVI melanoma
A549 NSCLC = tested on: A549 NSCLC
UACC-257 melanoma = tested on: UACC-257 melanoma
IGROV1 ovarian = tested on: IGROV1 ovarian
HCT-116 colon = tested on: HCT-116 colon
DMS 273 small cell lung = tested on: DMS 273 small cell lung
NCI-H522 lung = tested on: NCI-H522 lung
ACHN renal = tested on: ACHN renal
SN12C renal = tested on: SN12C renal
KM20L2 colon = tested on: KM20L2 colon
SF-268 CNS = tested on: SF-268 CNS
DLD-1 colon = tested on: DLD-1 colon
EKVX NSCLC = tested on: EKVX NSCLC
HOP-92 NSCLC = tested on: HOP-92 NSCLC
HCC-2998 colon = tested on: HCC-2998 colon
HOP-62 NSCLC = tested on: HOP-62 NSCLC
A498 renal = tested on: A498 renal
SF-539 CNS = tested on: SF-539 CNS
UO-31 renal = tested on: UO-31 renal
XF 498 CNS = tested on: XF 498 CNS
K-562 leukemia = tested on: K-562 leukemia
HOP-18 NSCLC = tested on: HOP-18 NSCLC
SNB-19 CNS = tested on: SNB-19 CNS
OVCAR-3 ovarian = tested on: OVCAR-3 ovarian
HCT-15 colon = tested on: HCT-15 colon
SF-295 CNS = tested on: SF-295 CNS
LXFL 529 NSCLC = tested on: LXFL 529 NSCLC
OVCAR-5 ovarian = tested on: OVCAR-5 ovarian
HL-60(TB) leukemia = tested on: HL-60(TB) leukemia
CAKI-1 renal = tested on: CAKI-1 renal
UACC-62 melanoma = tested on: UACC-62 melanoma
OVCAR-8 ovarian = tested on: OVCAR-8 ovarian
KM12 colon = tested on: KM12 colon
TK-10 renal = tested on: TK-10 renal
NCI-H23 lung = tested on: NCI-H23 lung
SK-MEL-2 melanoma = tested on: SK-MEL-2 melanoma
SNB-75 CNS = tested on: SNB-75 CNS
M14 melanoma = tested on: M14 melanoma
NCI-H226 lung = tested on: NCI-H226 lung
MOLT-4 leukemia = tested on: MOLT-4 leukemia
SW-620 colon = tested on: SW-620 colon
DMS 114 small cell lung = tested on: DMS 114 small cell lung
COLO 205 colon = tested on: COLO 205 colon
SK-MEL-28 melanoma = tested on: SK-MEL-28 melanoma
M19-MEL melanoma = tested on: M19-MEL melanoma
MALME-3M melanoma = tested on: MALME-3M melanoma
RXF 393 renal = tested on: RXF 393 renal
SK-MEL-5 melanoma = tested on: SK-MEL-5 melanoma
SNB-78 CNS = tested on: SNB-78 CNS
RPMI-8226 leukemia = tested on: RPMI-8226 leukemia

CC(C)(C)c1ccc2c(c1)C(O)(c1ccccc1)c1cc(C(C)(C)C)ccc1C2(O)C(F)(F)F (configuration not stated)
TGI (SK-OV-3 ovarian): 8.57 µM | TGI (U251 CNS): 3.31 µM | TGI (HT29 colon): 2.99 µM | TGI (SR leukemia): 5.12 µM | TGI (NCI-H460 lung): 3.5 µM | TGI (786-0 renal): 3.77 µM | TGI (OVCAR-4 ovarian): 3.7 µM | TGI (CCRF-CEM leukemia): 5.57 µM | TGI (LOX IMVI melanoma): 3.32 µM | TGI (A549 NSCLC): 3.7 µM | TGI (UACC-257 melanoma): 4.85 µM | TGI (IGROV1 ovarian): 4.94 µM | TGI (HCT-116 colon): 3.37 µM | TGI (DMS 273 small cell lung): 3.55 µM | TGI (NCI-H522 lung): 3.45 µM | TGI (ACHN renal): 5.77 µM | TGI (SN12C renal): 3.14 µM | TGI (KM20L2 colon): 3.05 µM | TGI (SF-268 CNS): 4.48 µM | TGI (DLD-1 colon): 4.15 µM | TGI (EKVX NSCLC): 9.85 µM | TGI (HOP-92 NSCLC): 3.79 µM | TGI (HCC-2998 colon): 3.66 µM | TGI (HOP-62 NSCLC): 2.94 µM | TGI (A498 renal): 3.25 µM | TGI (SF-539 CNS): 3.41 µM | TGI (UO-31 renal): 4.58 µM | TGI (XF 498 CNS): 2.9 µM | TGI (K-562 leukemia): 5.62 µM | TGI (HOP-18 NSCLC): 5.06 µM | TGI (SNB-19 CNS): 6.32 µM | TGI (OVCAR-3 ovarian): 4.29 µM | TGI (HCT-15 colon): 3.83 µM | TGI (SF-295 CNS): 2.88 µM | TGI (LXFL 529 NSCLC): 4.39 µM | TGI (OVCAR-5 ovarian): 3.05 µM | TGI (HL-60(TB) leukemia): 5.15 µM | TGI (CAKI-1 renal): 4.73 µM | TGI (UACC-62 melanoma): 3.66 µM | TGI (OVCAR-8 ovarian): 4.29 µM | TGI (KM12 colon): 4.87 µM | TGI (TK-10 renal): 11.4 µM | TGI (NCI-H23 lung): 4.39 µM | TGI (SK-MEL-2 melanoma): 3.63 µM | TGI (SNB-75 CNS): 5.48 µM | TGI (M14 melanoma): 3.59 µM | TGI (NCI-H226 lung): 2.35 µM | TGI (MOLT-4 leukemia): 4.71 µM | TGI (SW-620 colon): 4.23 µM | TGI (DMS 114 small cell lung): 5.21 µM | TGI (COLO 205 colon): 3.27 µM | TGI (SK-MEL-28 melanoma): 4.54 µM | TGI (M19-MEL melanoma): 3.7 µM | TGI (MALME-3M melanoma): 5.56 µM | TGI (RXF 393 renal): 3.87 µM

COS(=O)(=O)OCCC(NC(=O)OCc1ccccc1)C(=O)OCc1ccccc1 (configuration not stated)
TGI (SK-OV-3 ovarian): > 100 µM | TGI (U251 CNS): > 100 µM | TGI (HT29 colon): > 100 µM | TGI (NCI-H460 lung): > 100 µM | TGI (786-0 renal): > 100 µM | TGI (OVCAR-4 ovarian): > 100 µM | TGI (CCRF-CEM leukemia): > 100 µM | TGI (LOX IMVI melanoma): > 100 µM | TGI (A549 NSCLC): > 100 µM | TGI (UACC-257 melanoma): > 100 µM | TGI (IGROV1 ovarian): > 100 µM | TGI (HCT-116 colon): > 100 µM | TGI (DMS 273 small cell lung): > 100 µM | TGI (NCI-H522 lung): > 100 µM | TGI (ACHN renal): > 100 µM | TGI (SN12C renal): > 100 µM | TGI (KM20L2 colon): > 100 µM | TGI (SF-268 CNS): > 100 µM | TGI (DLD-1 colon): > 100 µM | TGI (SK-MEL-5 melanoma): > 100 µM | TGI (EKVX NSCLC): > 100 µM | TGI (HOP-92 NSCLC): > 100 µM | TGI (SNB-78 CNS): > 100 µM | TGI (HCC-2998 colon): > 100 µM | TGI (HOP-62 NSCLC): > 100 µM | TGI (A498 renal): > 100 µM | TGI (SF-539 CNS): > 100 µM | TGI (UO-31 renal): > 100 µM | TGI (K-562 leukemia): > 100 µM | TGI (HOP-18 NSCLC): > 100 µM | TGI (SNB-19 CNS): > 100 µM | TGI (OVCAR-3 ovarian): > 100 µM | TGI (HCT-15 colon): > 100 µM | TGI (SF-295 CNS): > 100 µM | TGI (LXFL 529 NSCLC): > 100 µM | TGI (OVCAR-5 ovarian): > 100 µM | TGI (HL-60(TB) leukemia): > 100 µM | TGI (CAKI-1 renal): > 100 µM | TGI (UACC-62 melanoma): > 100 µM | TGI (OVCAR-8 ovarian): > 100 µM | TGI (KM12 colon): > 100 µM | TGI (RPMI-8226 leukemia): > 100 µM | TGI (TK-10 renal): > 100 µM | TGI (NCI-H23 lung): > 100 µM | TGI (SK-MEL-2 melanoma): > 100 µM | TGI (SNB-75 CNS): > 100 µM | TGI (M14 melanoma): > 100 µM | TGI (NCI-H226 lung): > 100 µM | TGI (MOLT-4 leukemia): > 100 µM | TGI (SW-620 colon): > 100 µM | TGI (DMS 114 small cell lung): > 100 µM | TGI (COLO 205 colon): > 100 µM | TGI (SK-MEL-28 melanoma): > 100 µM | TGI (M19-MEL melanoma): > 100 µM | TGI (MALME-3M melanoma): > 100 µM

O=c1c2c([nH]c3cc4c(cc13)OCO4)-c1ccccc1C2
TGI (SK-OV-3 ovarian): > 100 µM | TGI (U251 CNS): 35.6 µM | TGI (HT29 colon): 33 µM | TGI (SR leukemia): 56.1 µM | TGI (NCI-H460 lung): 63.9 µM | TGI (786-0 renal): > 100 µM | TGI (OVCAR-4 ovarian): > 100 µM | TGI (CCRF-CEM leukemia): 71.4 µM | TGI (LOX IMVI melanoma): 31.7 µM | TGI (A549 NSCLC): > 100 µM | TGI (IGROV1 ovarian): 49.7 µM | TGI (HCT-116 colon): 37.4 µM | TGI (DMS 273 small cell lung): 42.3 µM | TGI (NCI-H522 lung): 55.5 µM | TGI (ACHN renal): 53.8 µM | TGI (SN12C renal): 84.6 µM | TGI (KM20L2 colon): 36.7 µM | TGI (SF-268 CNS): > 100 µM | TGI (DLD-1 colon): 58.7 µM | TGI (SK-MEL-5 melanoma): 29.6 µM | TGI (EKVX NSCLC): > 100 µM | TGI (HOP-92 NSCLC): 56.3 µM | TGI (SNB-78 CNS): > 100 µM | TGI (HCC-2998 colon): 84.1 µM | TGI (HOP-62 NSCLC): 52.4 µM | TGI (SF-539 CNS): 34.7 µM | TGI (UO-31 renal): 86.1 µM | TGI (XF 498 CNS): 49.4 µM | TGI (K-562 leukemia): > 100 µM | TGI (HOP-18 NSCLC): 68.1 µM | TGI (SNB-19 CNS): > 100 µM | TGI (OVCAR-3 ovarian): 51.6 µM | TGI (HCT-15 colon): > 100 µM | TGI (SF-295 CNS): 84.8 µM | TGI (LXFL 529 NSCLC): 63.7 µM | TGI (HL-60(TB) leukemia): 70.1 µM | TGI (CAKI-1 renal): > 100 µM | TGI (UACC-62 melanoma): 32.3 µM | TGI (OVCAR-8 ovarian): > 100 µM | TGI (KM12 colon): 42.8 µM | TGI (RPMI-8226 leukemia): 48.2 µM | TGI (TK-10 renal): 78.5 µM | TGI (NCI-H23 lung): 67.5 µM | TGI (SK-MEL-2 melanoma): 28.9 µM | TGI (M14 melanoma): 46.5 µM | TGI (NCI-H226 lung): 86.7 µM | TGI (MOLT-4 leukemia): 82 µM | TGI (SW-620 colon): > 100 µM | TGI (COLO 205 colon): 31.5 µM | TGI (SK-MEL-28 melanoma): 59.9 µM | TGI (MALME-3M melanoma): 62.9 µM | TGI (RXF 393 renal): 34.2 µM
